# Results as given in patent USRE46943E1, “Radioprotector compounds and methods” (PETER MACCALLUM CANCER INSTITUTE, priority 2010, dated 2018).
# How the values were obtained:
# [1] = system: transformed human keratinocyte cell line (FEP 1811); experiment: Clonogenic survival cell culture assay for cytotoxicity; type: cell-based; conditions: Homo sapiens, Keratinocyte, light or radiation study; un-irradiated keratinocytes, one hour drug exposure, colonies counted after eight days; read-out: C50 (concentration of radioprotector that results in 50% clonogenic survival)
# Method: • i. […] In appropriate cases, tautomers are drawn to illustrate potential hydrogen-bond donating configurations into the minor groove of DNA. • ii. 2-Amino-4-(5′-(4″-methylpiperazin-1″-yl)benzimidazol-2′-yl)aniline was prepared by hydrogenation of 4-(5′-(4″-methylpiperazin-1″-yl)benzimidazol-2′-yl)-2-nitroaniline, using a modification of the method of Kelly et al, Aust. […] 2-Amino-4-(5′-(piperidin-1″-yl)benzimidazol-2′-yl)aniline was prepared by hydrogenation of 2-nitro-4-(5′-(piperidin-1″-yl)benzimidazol-2′-yl)aniline, using a modification of the method of Kelly et al, Aust. […] Ethyl 4-amino-3-nitrobenzenecarboximidate hydrochloride was prepared by reaction of 4-amino-3-nitrobenzonitrile with dry HCl gas in ethanol, using the method of Kelly et al, Aust. […] 5-(4′-Methylpiperazin-1′-yl)-2-nitroaniline was prepared using a modification of the method of Kelly et al, Aust. […] The following chemicals were obtained from the chemical suppliers indicated: 2-furaldehyde (Aldrich), 2-pyridinecarboxaldehyde (Aldrich), 3-fluoropyridine-2-carbaldehyde (Maybridge), 3-trifluoromethylpyridine-2-carboxaldehyde (Apollo Scientific), 6-methyl-2-pyridinecarboxaldehyde (Matrix Scientific), 5-methylpyridine-2-carbonitrile (Apollo Scientific), 4-methyl-2-pyridinecarbonitrile (Aldrich), 4-chloro-2-pyridinecarbonitrile (Aldrich), 4-methoxypicolinonitrile (Combi-Blocks), pyrazinecarbonitrile (Aldrich), 2-quinolinecarbonitrile (Aldrich), 3-isoquinolinecarbonitrile (Aldrich), 1-isoquinolinecarboxylic acid (Aldrich), indazole-3-carboxylic acid (Aldrich), 2-hydroxynicotinic acid (Aldrich), 4-hydroxypiperidine (Aldrich), 1-methylhomopiperazine (Aldrich), 3-hydroxypiperidine (Aldrich), 4-(N-BOC-amino)piperidine (Aldrich), 4-methoxypiperidine (Acros), 4-methyl-3-nitrobenzonitrile (Aldrich), 5-chloro-2-nitroaniline (Aldrich), 2-cyanopyridine (Aldrich), methyl 4-amino-2-methoxybenzoic acid (Aldrich), 4-(trifluoromethyl)-2-pyridinecarbonitrile (Matrix Scientific), cis-2,6-dimethylmorphoiline (Acros), 5-(trifluoromethyl)-2-pyridinecarbonitrile (Advanced Chemical Intermediates) and 5-fluoro-2-pyridinecarbonitrile (Advanced Chemical Intermediates). • ix. […] Melting points were determined using an Electrothermal melting point apparatus, and are uncorrected. […] The abbreviations s for singlet, d for doublet, t for triplet, q for quartet, br for broad and m for muitiplet were used in the assignments of multiplicity. A value approximating the centre of a multiplet is quoted. […] The addition of a few drops of acetic acid to methanol-d4 solutions was used to enhance solubility for the acquisition of ^13C nmr spectra. Mass spectra were recorded on a Micromass Quattro II mass spectrometer and accurate mass analyses were carried out by the School of Chemistry at the University of Melbourne on a Finnigan LTQ-FT model high resolution mass spectrometer. Thin layer chromatography (TLC) was carried out using Merck silica gel 60 F254 aluminium sheets or Merck neutral aluminium oxide 150 F254 sheets. Flash column chromatography was carried out using Ajax silica gel 230-400 mesh. • xi. […] The details are described in detail in Martin et al (4) (the disclosure of which is included herein in its entirety by way of reference), but briefly, mid-log phase monolayer cultures are incubated with various concentrations of the test drugs for one hour, after which the monolayers are washed and dispersed into single cell suspensions using pronase, and finally appropriate numbers of cells are dispensed into Petri dishes. Colonies are counted after eight days incubation. […] The irradiation (with a dose rate of 0.6 Gy per minute) is started 30 minutes after addition of the test drug. After completion of irradiation, incubation of cultures is continued until the total time of exposure to the drug reaches 60 minutes. Cultures are then washed and plated for clonogenic survival as described for the cytotoxicity experiments.
# [2] = system: transformed human keratinocyte cell line (FEP 1811); experiment: Clonogenic survival cell culture assay for radioprotective activity (12 Gy 137Cs gamma irradiation); type: cell-based; conditions: 12 Gy; for DMF10 (dose modification factor at a concentration of 10 microM of radioprotector): 10 microM radioprotector; for DMFm (dose modification factor at maximum protection): DMF=Dp/Dc at survival level Sm; for PF (protection factor = Sm/So): survival at maximum protection vs irradiation only
# Excerpt: PF is defined as a ratio of survival at maximum protection Sm and survival after irradiation only So: PF=Sm/So. DMF is defined as a ratio of doses that result in survival level of Sm in the presence Dp and the absence Dc of radioprotector: DMF=Dp/Dc. DMF10 is define in a similar way except that instead of Sm a survival at 10 microM of radioprotector is used.
# PF (Protection Factor) is defined as a ratio of survival at maximum protection Sm and survival after irradiation only So:PF=Sm/So. DMF (Dose Modification Factor) is defined as a ratio of doses that result in survival level of Sm in the presence (Dp) and the absence (Dc) of radioprotector: DMF=Dp/Dc. DMF10 is defined in a similar way except that instead of Sm a survival at 10 microM of radioprotector is used.
# • i. […] In appropriate cases, tautomers are drawn to illustrate potential hydrogen-bond donating configurations into the minor groove of DNA. • ii. 2-Amino-4-(5′-(4″-methylpiperazin-1″-yl)benzimidazol-2′-yl)aniline was prepared by hydrogenation of 4-(5′-(4″-methylpiperazin-1″-yl)benzimidazol-2′-yl)-2-nitroaniline, using a modification of the method of Kelly et al, Aust. […] 2-Amino-4-(5′-(piperidin-1″-yl)benzimidazol-2′-yl)aniline was prepared by hydrogenation of 2-nitro-4-(5′-(piperidin-1″-yl)benzimidazol-2′-yl)aniline, using a modification of the method of Kelly et al, Aust. […] Ethyl 4-amino-3-nitrobenzenecarboximidate hydrochloride was prepared by reaction of 4-amino-3-nitrobenzonitrile with dry HCl gas in ethanol, using the method of Kelly et al, Aust. […] 5-(4′-Methylpiperazin-1′-yl)-2-nitroaniline was prepared using a modification of the method of Kelly et al, Aust. […] The following chemicals were obtained from the chemical suppliers indicated: 2-furaldehyde (Aldrich), 2-pyridinecarboxaldehyde (Aldrich), 3-fluoropyridine-2-carbaldehyde (Maybridge), 3-trifluoromethylpyridine-2-carboxaldehyde (Apollo Scientific), 6-methyl-2-pyridinecarboxaldehyde (Matrix Scientific), 5-methylpyridine-2-carbonitrile (Apollo Scientific), 4-methyl-2-pyridinecarbonitrile (Aldrich), 4-chloro-2-pyridinecarbonitrile (Aldrich), 4-methoxypicolinonitrile (Combi-Blocks), pyrazinecarbonitrile (Aldrich), 2-quinolinecarbonitrile (Aldrich), 3-isoquinolinecarbonitrile (Aldrich), 1-isoquinolinecarboxylic acid (Aldrich), indazole-3-carboxylic acid (Aldrich), 2-hydroxynicotinic acid (Aldrich), 4-hydroxypiperidine (Aldrich), 1-methylhomopiperazine (Aldrich), 3-hydroxypiperidine (Aldrich), 4-(N-BOC-amino)piperidine (Aldrich), 4-methoxypiperidine (Acros), 4-methyl-3-nitrobenzonitrile (Aldrich), 5-chloro-2-nitroaniline (Aldrich), 2-cyanopyridine (Aldrich), methyl 4-amino-2-methoxybenzoic acid (Aldrich), 4-(trifluoromethyl)-2-pyridinecarbonitrile (Matrix Scientific), cis-2,6-dimethylmorphoiline (Acros), 5-(trifluoromethyl)-2-pyridinecarbonitrile (Advanced Chemical Intermediates) and 5-fluoro-2-pyridinecarbonitrile (Advanced Chemical Intermediates). • ix. […] Melting points were determined using an Electrothermal melting point apparatus, and are uncorrected. […] The abbreviations s for singlet, d for doublet, t for triplet, q for quartet, br for broad and m for muitiplet were used in the assignments of multiplicity. A value approximating the centre of a multiplet is quoted. […] The addition of a few drops of acetic acid to methanol-d4 solutions was used to enhance solubility for the acquisition of ^13C nmr spectra. Mass spectra were recorded on a Micromass Quattro II mass spectrometer and accurate mass analyses were carried out by the School of Chemistry at the University of Melbourne on a Finnigan LTQ-FT model high resolution mass spectrometer. Thin layer chromatography (TLC) was carried out using Merck silica gel 60 F254 aluminium sheets or Merck neutral aluminium oxide 150 F254 sheets. Flash column chromatography was carried out using Ajax silica gel 230-400 mesh. • xi.
SMILES,melting point,IC50 [1] [µM],DMF10 (dose modification factor at a concentration of 10 microM of radioprotector) [2],DMFm (dose modification factor at maximum protection) [2],PF (protection factor = Sm/So) [2]
"OC1CCN(c2ccc3nc(-c4ccc5nc(-c6ccccn6)[nH]c5c4)[nH]c3c2)CC1 [Example 22, 2-(5′-(5″-(4′″-Hydroxypiperidin-1′″-yl)benzimidazol-2″-yl)benzimidazol-2′-yl)pyridine]",226 to 229 °C,266,1.47,2.20,21.3
"CN1CCN(c2ccc3nc(-c4ccc5nc(-c6cnccn6)[nH]c5c4)[nH]c3c2)CC1 [Example 12, 2-(5′-(5″-(4′″-Methylpiperazin-1′″-yl)benzimidazol-2″-yl)benzimidazol-2′-yl)pyrazine]",175 °C (dec.),54.2,1.15,1.29,6.5
"CN1CCCN(c2ccc3nc(-c4ccc5nc(-c6ccccn6)[nH]c5c4)[nH]c3c2)CC1 [Example 25, 2-(5′-(5″-(4′″-Methyl-1′″,4′″-diazepan-1′″-yl)benzimidazol-2″-yl)benzimidazol-2′-yl)pyridine]",185 °C (dec.),123,1.77,2.14,16.7
"OCCN1CCN(c2ccc3nc(-c4ccc5nc(-c6ccccn6)[nH]c5c4)[nH]c3c2)CC1 [Example 41, 2-(5′-(5″-(4′″-(2″″-hydroxyethyl)piperazin-1′″-yl)benzimidazol-2″-yl)benzimidazol-2′-yl)pyridine]",218 to 221 °C,90.6,1.44,1.95,19.6

# The next lines start with results.
melting point,SMILES,IC50 [1] [µM],DMF10 (dose modification factor at a concentration of 10 microM of radioprotector) [2],DMFm (dose modification factor at maximum protection) [2],PF (protection factor = Sm/So) [2]
214 to 217 °C,"CN1CCN(c2ccc3nc(-c4ccc5nc(-c6nccc7ccccc67)[nH]c5c4)[nH]c3c2)CC1 [Example 15, 1-(5′-(5″-(4′″-Methylpiperazin-1′″-yl)benzimidazol-2″-yl)benzimidazol-2′-yl)isoquinoline]",26.9,1.70,1.85,36.9
208 to 213 °C,"Cc1ccc(-c2nc3ccc(-c4nc5ccc(N6CCC(O)CC6)cc5[nH]4)cc3[nH]2)nc1 [Example 51, 2-(5′-(5″-(4′″-hydroxypiperidin-1′″-yl)benzimidazol-2″-yl)benzimidazol-2′-yl)-5-methylpyridine]",124,1.90,2.07,58.7
204 to 209 °C,"Cc1ccnc(-c2nc3ccc(-c4nc5ccc(N6CCC(O)CC6)cc5[nH]4)cc3[nH]2)c1 [Example 50, 2-(5′-(5″-(4′″-hydroxypiperidin-1′″-yl)benzimidazol-2″-yl)benzimidazol-2′-yl)-4-methylpyridine]",134,1.33,1.79,23.5
224 to 229 °C,"CN1CCN(c2ccc3nc(-c4ccc5nc(-c6cc7ccccc7cn6)[nH]c5c4)[nH]c3c2)CC1 [Example 14, 3-(5′-(5″-(4′″-Methylpiperazin-1′″-yl)benzimidazol-2″-yl)benzimidazol-2′-yl)isoquinoline]",26,2.34,2.45,25.1
202 °C (dec.),"c1ccc2cc(-c3nc4ccc(-c5nc6ccc(N7CCOCC7)cc6[nH]5)cc4[nH]3)ncc2c1 [Example 20, 3-(5′-(5″-Morpholinobenzimidazol-2″-yl)benzimidazol-2′-yl)isoquinoline]",172,1.52,1.57,11.4
